Test in all cases: NCI tumour cell line growth inhibition, 48 h
The subject of assay [1] is NCI-H460.
Assay [2] relates to SK-MEL-2.
For assay [3], the system named is PC-3.
Assay [4] relates to K562.
Assay [5] deals with 786-0.
The subject of assay [6] is CAKI-1.
For assay [7], the system named is DU-145.
The subject of assay [8] is OVCAR-5.
In assay [9] the test system is SK-MEL-5.
Assay [10] has as its system RPMI-8226.
For assay [11], the system named is Hs-578T.
For assay [12], the system named is NCI-H522.
Assay [13] deals with NCI-H226.
In assay [14] the test system is U-251.
Assay [15] concerns HL-60.
The test system of assay [16] is HCT-15.
Assay [17] deals with MDA-MB-435.
The subject of assay [18] is A549.
The test system of assay [19] is IGROV-1.
The test system of assay [20] is SF-268.

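In this assay, cells in 96-well plates receive the compound at five concentrations for 48 hours. Endpoints are linearly interpolated between the surrounding concentrations. At the GI50, growth is halved.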 Activity calls are given as the source filed them. Cut-off read from the data, not from the text of the source: active = GI50 up to about 1.1 µM and inactive = higher.

Take `O=C(O)c1nn(-c2ccc(Cl)cc2)c2c1C(=O)c1ccccc1C2=O`: the GI50 is 62.1 µM (inactive) in assay [1]; > 100 µM (inactive) in [2]; > 100 µM (inactive) in assay [3]; > 100 µM (inactive) in assay [4]; > 100 µM (inactive) in assay [5]; > 100 µM (inactive) in [6]. In addition, the GI50 in [7] was > 100 µM (inactive); in assay [8], > 100 µM (inactive); in assay [9], 20.5 µM (inactive); in assay [10] it was > 100 µM (inactive); in assay [11], > 100 µM (inactive); in [12] it was > 100 µM (inactive). The GI50 in assay [13] is > 100 µM (inactive); in [14] it was 55.7 µM (inactive); in assay [15], > 100 µM (inactive); in assay [16], more than 100 µM; in [17], > 100 µM (inactive); in assay [18], > 100 µM (inactive). For the same compound, the GI50 in [19] and in assay [20] was > 100 µM (inactive) throughout.
Turning to `CN(C)CCC(=O)[C@@]1(O)CC[C@H]2[C@@H]3CC=C4C[C@@H](O)CC[C@]4(C)[C@H]3CC[C@@]21C`, the GI50 is 15.4 µM (inactive) in [1]; 15.9 µM (inactive) in assay [2]; 13.4 µM (inactive) in [3]; 18.2 µM (inactive) in assay [4]; 3.68 µM (inactive) in [5]; 17.5 µM (inactive) in assay [6]. For the same compound, the GI50 is 6.65 µM (inactive) in assay [7]; > 61.5 µM (inactive) in assay [8]; 29.9 µM (inactive) in [9]; 1.58 µM (inactive) in assay [10]; 20.7 µM (inactive) in [11]; 11.9 µM (inactive) in [12]. For the same compound, the GI50 in assay [13] is 62.8 µM (inactive); in assay [14], 17.3 µM (inactive); in [15], 17.4 µM (inactive); in assay [16] it was 20.1 µM; in assay [17], 18.2 µM (inactive); in assay [18], 37.1 µM (inactive). The GI50 in assay [19] was 17.8 µM (inactive); in assay [20], 16.9 µM (inactive).
For `COc1ccc(-c2cc(-c3ccccc3)nc(/N=C\c3ccccc3)n2)c(O)c1`, the GI50 in assay [1] is 6.81 µM (inactive); in [2], 6.52 µM (inactive); in [3] it was 7 µM (inactive); in [4], 2.44 µM (inactive); in assay [5] it was > 100 µM (inactive); in assay [6], 3.02 µM (inactive). For the same compound, the GI50 in [7] is 7.62 µM (inactive); in assay [8], > 100 µM (inactive); in assay [9], 7.05 µM (inactive); in assay [10], 2.14 µM (inactive); in assay [11], > 100 µM (inactive); in [12], 3.33 µM (inactive). Moreover, the GI50 in [13] is > 100 µM (inactive); in assay [14], 10.3 µM (inactive); in [15], 2.71 µM (inactive); in assay [16], 5.37 µM; in assay [17], 3.72 µM (inactive); in assay [18] it was 26.4 µM (inactive). Further, the figures for the GI50 in assay [19] and in assay [20] were 11.5 µM (inactive) and > 93.5 µM (inactive), respectively.
Take `COc1ccc2c(c1)c1c3c(ccc4ncn2c43)N(CCN(C)C)CCN=1`: the GI50 is 0.176 µM (active) in [1]; 1.03 µM (active) in [2]; 0.357 µM (active) in assay [3]; 0.0488 µM (active) in [4]; 0.19 µM (active) in [5]; 1.71 µM (inactive) in assay [6]. For the same compound, the GI50 in assay [7] was 0.942 µM (active); in assay [8], 0.676 µM (active); in [9] it was 0.91 µM (active); in assay [10], 1.48 µM (inactive); in assay [11], 1.06 µM (active); in assay [12], 0.19 µM (active). Besides, the GI50 in [13] is 1.14 µM (inactive); in assay [14], 0.363 µM (active); in assay [15], 0.333 µM (active); in [16], 0.303 µM; in assay [17] it was 0.378 µM (active); in [18] it was 0.359 µM (active). Also, the GI50 in [19] is 1.31 µM (inactive); in assay [20], 0.836 µM (active).
Turning to `CCCCCCCCCCCCCOCCOCCOCCCCC(O)CCCCCCCCCC1=C[C@H](C)OC1=O` (stereo not given in full), the GI50 in assay [1] was 17.5 µM (inactive); in assay [2] it was 23 µM (inactive); in assay [3], 13.8 µM (inactive); in assay [4] it was 21.2 µM (inactive); in assay [5] it was 17.6 µM (inactive); in assay [6], 19.1 µM (inactive). Further, the GI50 in assay [7] was 21.7 µM (inactive); in assay [8], 28 µM (inactive); in assay [9], 6.93 µM (inactive); in [10] it was 1.96 µM (inactive); in [11] it was 14.9 µM (inactive); in [12] it was 0.0488 µM (active). The GI50 in [13] was 12.8 µM (inactive); in assay [14], 14.1 µM (inactive); in [15], 0.356 µM (active); in [16] it was 19.1 µM; in [17] it was 16.9 µM (inactive); in [18], 7.55 µM (inactive). Also, the GI50 in [19] and in assay [20] was 18.1 µM (inactive) in each case.
For `Cc1ncc([N+](=O)[O-])n1CCNCCCCn1ccnc1[N+](=O)[O-]`, the GI50 in assay [1], in assay [2], in [3], in [4], in assay [5] and in assay [6] was > 100 µM (inactive) each time. The GI50 in assay [7], in assay [8], in assay [9], in assay [10], in [11] and in [12] was > 100 µM (inactive) in each case. The GI50 in assay [13] was > 100 µM (inactive); in assay [14] it was > 100 µM (inactive); in assay [15], > 100 µM (inactive); in assay [16], more than 100 µM; in assay [17] it was > 100 µM (inactive); in [18] it was > 100 µM (inactive). The GI50 in [19] and in assay [20] was > 100 µM (inactive) in each case.
Turning to `C=C1C(=O)OC2C3C(=C)[C@@H](OC(C)=O)CC3C(C)=CC(OC(=O)C(C)(O)C(C)OC(C)=O)[C@@H]12` (stereo not given in full), the GI50 in assay [1] is 17.6 µM (inactive); in [2], 4.98 µM (inactive); in assay [3], 16.3 µM (inactive); in assay [4] it was 3.35 µM (inactive); in assay [5], 11.5 µM (inactive); in assay [6], 2.9 µM (inactive). The GI50 in assay [7] is 16.2 µM (inactive); in assay [8], 11.9 µM (inactive); in assay [9], 7.4 µM (inactive); in [10] it was 7.18 µM (inactive); in assay [11], 12.8 µM (inactive); in [12], 1.52 µM (inactive). Moreover, the GI50 in assay [13] was 21.6 µM (inactive); in assay [14], 16.8 µM (inactive); in [15], 2.55 µM (inactive); in assay [16], 10.4 µM; in [17], 8.93 µM (inactive); in assay [18] it was 26.2 µM (inactive). Moreover, the results for the GI50 in assay [19] and in assay [20] were 7.36 µM (inactive) and 19.5 µM (inactive), respectively.

The record behind these values is ChEMBL document CHEMBL1201862, “PubChem BioAssay data set” (2004).
